# From patent publication US12509444B2, “Compounds and methods for CD73 modulation and indications therefor” (Plexxikon Inc., priority 2019, dated 2025)
# What was measured:
# [1] = molecular target: T1, Human CD73 (amino acid residues 27-549) (Homo sapiens, UniProt P21589); experiment: CD73 enzymatic assay (luciferase-based indirect assay, CellTiter-Glo); type: biochemical; conditions: 0.4 nM CD73, 150 μM AMP, 1 hour at room temperature
# T1 construct: Human CD73 (amino acid residues 27-549); His tag (N); made in house; host or cells: E. coli
# T1 sequence (P21589 27-549): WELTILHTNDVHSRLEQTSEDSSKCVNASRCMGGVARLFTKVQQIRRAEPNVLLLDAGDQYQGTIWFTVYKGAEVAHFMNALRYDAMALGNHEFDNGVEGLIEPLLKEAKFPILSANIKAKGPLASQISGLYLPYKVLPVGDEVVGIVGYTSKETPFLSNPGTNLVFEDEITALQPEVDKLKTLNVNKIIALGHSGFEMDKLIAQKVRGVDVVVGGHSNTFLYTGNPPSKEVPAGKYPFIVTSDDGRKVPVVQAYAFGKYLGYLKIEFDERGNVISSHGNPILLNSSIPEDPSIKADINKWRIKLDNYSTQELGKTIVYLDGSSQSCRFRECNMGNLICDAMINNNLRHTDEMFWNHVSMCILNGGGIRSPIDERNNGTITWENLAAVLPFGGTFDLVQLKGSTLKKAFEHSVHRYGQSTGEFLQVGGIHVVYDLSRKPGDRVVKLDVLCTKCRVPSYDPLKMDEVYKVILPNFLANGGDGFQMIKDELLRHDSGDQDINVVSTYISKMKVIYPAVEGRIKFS
# How it was run: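 His-tagged human CD73 (27-549) from E. coli, 0.4 nM, with 150 μM AMP in 50 mM HEPES pH 7.4, 0.01% Tween 20; 1 h at room temperature. AMP remaining read by CellTiter-Glo 2.0 luminescence with 1 μM final ATP after 30 min. IC50 from nonlinear regression of % inhibition.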
# human CD73 = molecular target: T2, human CD73 (Homo sapiens, UniProt P21589); experiment: Inhibitor activity against CD73 in cell based assay (CD73 expressing CHO-K1 cells); conditions: CHO-K1 cells expressing human CD73, 150 μM AMP, 4 hours of incubation; read-out: CHO-K1 CELL VARIANT: CD73 IC50
# T2 construct: expressed in transfected cells
# T2 sequence (P21589 27-549): T1 sequence (P21589 27-549)
# How it was run: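 Stably transfected CHO-K1 cells expressing human CD73 (1×10^4/well) incubated 4 h with compound (8-point 1:3 titration, top 10 μM final, 0.2% DMSO) and 150 μM AMP. Residual AMP in supernatant measured by CellTiter-Glo luminescence with 1 μM ATP after 30 min at room temperature; IC50 by nonlinear regression of percent inhibition vs high/low controls.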
Compound,IC50 [1] [µM],IC50 (human CD73) [µM]
"O=C(Cn1ncc(N2CC[C@@H](OC(=O)NC3CCC(F)(F)CC3)C2)c(Cl)c1=O)NO [P-0430, (R)-1-(5-chloro-1-(2-(hydroxyamino)-2-oxoethyl)-6-oxo-1,6-dihydropyridazin-4-yl)pyrrolidin-3-yl (4,4-difluorocyclohexyl)carbamate]",0.001 to 10,10 to 100
"O=C(NC1CC(F)(F)C1)O[C@@H]1CCN(c2cnn(CCO)c(=O)c2Cl)C1 [P-0431, (R)-1-(5-chloro-1-(2-hydroxyethyl)-6-oxo-1,6-dihydropyridazin-4-yl)pyrrolidin-3-yl (3,3-difluorocyclobutyl)carbamate]",0.001 to 10,0.001 to 10
"CC1(NC(=O)O[C@@H]2CCN(c3cn[nH]c(=O)c3Cl)C2)CC(F)(F)C1 [P-0432, (R)-1-(5-chloro-6-oxo-1,6-dihydropyridazin-4-yl)pyrrolidin-3-yl (3,3-difluoro-1-methylcyclobutyl)carbamate]",0.001 to 10,0.001 to 10
"O=C(NC12CC(F)(C1)C2)O[C@@H]1CCN(c2cn[nH]c(=O)c2Cl)C1 [P-0433, (R)-1-(5-chloro-6-oxo-1,6-dihydropyridazin-4-yl)pyrrolidin-3-yl (3-fluorobicyclo[1.1.1]pentan-1-yl)carbamate]",0.001 to 10,0.001 to 10
"O=C(N[C@H]1CC[C@@H](NC2CCC2)CC1)O[C@@H]1CCN(c2cn[nH]c(=O)c2Cl)C1 [P-0434, (R)-1-(5-chloro-6-oxo-1,6-dihydropyridazin-4-yl)pyrrolidin-3-yl ((1s,4S)-4-(cyclobutylamino)cyclohexyl) carbamate]",0.001 to 10,0.001 to 10
"NCCn1ncc(N2CC[C@@H](OC(=O)N[C@H]3CC[C@@H](NC(=O)NC4CC4)CC3)C2)c(Cl)c1=O [P-0435, (R)-1-(1-(2-aminoethyl)-5-chloro-6-oxo-1,6-dihydropyridazin-4-yl)pyrrolidin-3-yl ((1s,4S)-4-(3-cyclopropylureido)cyclohexyl) carbamate]",0.001 to 10,0.001 to 10
"C#CC1(NC(=O)O[C@@H]2CCN(c3cn[nH]c(=O)c3Cl)C2)CCCCC1 [P-0436, (R)-1-(5-chloro-6-oxo-1,6-dihydropyridazin-4-yl)pyrrolidin-3-yl (1-ethynylcyclohexyl)carbamate]",0.001 to 10,0.001 to 10
"CC1(NC(=O)O[C@@H]2CCN(c3cn[nH]c(=O)c3Cl)C2)CCC(F)(F)CC1 [P-0437, (R)-1-(5-chloro-6-oxo-1,6-dihydropyridazin-4-yl)pyrrolidin-3-yl (4,4-difluoro-1-methylcyclohexyl)carbamate]",0.001 to 10,0.001 to 10
"O=C(NC1CCN(C(=O)Nc2ncccc2F)CC1)O[C@@H]1CCN(c2cn[nH]c(=O)c2Cl)C1 [P-0438, (R)-1-(5-chloro-6-oxo-1,6-dihydropyridazin-4-yl)pyrrolidin-3-yl (1-((3-fluoropyridin-2-yl)carbamoyl)piperidin-4-yl)carbamate]",0.001 to 10,0.001 to 10
"CC1(NC(=O)O[C@@H]2CCN(c3cnn(CCO)c(=O)c3Cl)C2)CC(F)(F)C1 [P-0439, (R)-1-(5-chloro-1-(2-hydroxyethyl)-6-oxo-1,6-dihydropyridazin-4-yl)pyrrolidin-3-yl (3,3-difluoro-1-methylcyclobutyl)carbamate]",0.001 to 10,0.001 to 10
"O=C(NC1C2CCC1CC(F)(F)C2)O[C@@H]1CCN(c2cn[nH]c(=O)c2Cl)C1 (stereo partly drawn) [P-0440, (R)-1-(5-chloro-6-oxo-1,6-dihydropyridazin-4-yl)pyrrolidin-3-yl (3,3-difluorobicyclo[3.2.1]octan-8-yl)carbamate]",0.001 to 10,0.001 to 10
"O=C(NC1CC2C(C1)C2(F)F)O[C@@H]1CCN(c2cn[nH]c(=O)c2Cl)C1 (stereo partly drawn) [P-0441, (R)-1-(5-chloro-6-oxo-1,6-dihydropyridazin-4-yl)pyrrolidin-3-yl (6,6-difluorobicyclo[3.1.0]hexan-3-yl)carbamate]",0.001 to 10,0.001 to 10
"COc1ccc(CC(=O)N2CCC(NC(=O)O[C@@H]3CCN(c4cn[nH]c(=O)c4Cl)C3)CC2)cc1 [P-0442, (R)-1-(5-chloro-6-oxo-1,6-dihydropyridazin-4-yl)pyrrolidin-3-yl (1-(2-(4-methoxyphenyl)acetyl)piperidin-4-yl)carbamate]",0.001 to 10,0.001 to 10
"O=C(NC1CCN(C(=O)Cc2ccc(F)cc2)CC1)O[C@@H]1CCN(c2cn[nH]c(=O)c2Cl)C1 [P-0443, (R)-1-(5-chloro-6-oxo-1,6-dihydropyridazin-4-yl)pyrrolidin-3-yl (1-(2-(4-fluorophenyl)acetyl)piperidin-4-yl)carbamate]",0.001 to 10,0.001 to 10
"O=C(NC1CCN(C(=O)Cc2ccc(Cl)c(F)c2)CC1)O[C@@H]1CCN(c2cn[nH]c(=O)c2Cl)C1 [P-0444, (R)-1-(5-chloro-6-oxo-1,6-dihydropyridazin-4-yl)pyrrolidin-3-yl (1-(2-(4-chloro-3-fluorophenyl)acetyl)piperidin-4-yl)carbamate]",0.001 to 10,0.001 to 10
"O=C(NC1CCN(C(=O)Cc2ccc(F)c(Cl)c2)CC1)O[C@@H]1CCN(c2cn[nH]c(=O)c2Cl)C1 [P-0445, (R)-1-(5-chloro-6-oxo-1,6-dihydropyridazin-4-yl)pyrrolidin-3-yl (1-(2-(3-chloro-4-fluorophenyl)acetyl)piperidin-4-yl)carbamate]",0.001 to 10,0.001 to 10
"O=C(NC1CC2CCC2C1)O[C@@H]1CCN(c2cn[nH]c(=O)c2Cl)C1 (stereo partly drawn) [P-0446, (R)-1-(5-chloro-6-oxo-1,6-dihydropyridazin-4-yl)pyrrolidin-3-yl bicyclo[3.2.0]heptan-3-ylcarbamate]",0.001 to 10,0.001 to 10
"O=C(N[C@@H]1CCC[C@H]1F)O[C@@H]1CCN(c2cn[nH]c(=O)c2Cl)C1 [P-0447, (R)-1-(5-chloro-6-oxo-1,6-dihydropyridazin-4-yl)pyrrolidin-3-yl ((1R,2R)-2-fluorocyclopentyl)carbamate]",0.001 to 10,0.001 to 10
"O=C(NC12CCC(F)(CC1)C2)O[C@@H]1CCN(c2cn[nH]c(=O)c2Cl)C1 [P-0448, (R)-1-(5-chloro-6-oxo-1,6-dihydropyridazin-4-yl)pyrrolidin-3-yl (4-fluorobicyclo[2.2.1]heptan-1-yl)carbamate]",0.001 to 10,0.001 to 10
"O=C(NC1CC2CC2C1)O[C@@H]1CCN(c2cnn(CCO)c(=O)c2Cl)C1 (stereo partly drawn) [P-0449, (R)-1-(5-chloro-1-(2-hydroxyethyl)-6-oxo-1,6-dihydropyridazin-4-yl)pyrrolidin-3-yl bicyclo[3.1.0]hexan-3-ylcarbamate]",0.001 to 10,0.001 to 10
"CC1CCCC1NC(=O)O[C@@H]1CCN(c2cnn(CCO)c(=O)c2Cl)C1 (stereo partly drawn) [P-0450, (R)-1-(5-chloro-1-(2-hydroxyethyl)-6-oxo-1,6-dihydropyridazin-4-yl)pyrrolidin-3-yl (2-methylcyclopentyl)carbamate]",0.001 to 10,0.001 to 10
"O=C(NC1CC2CCC1O2)O[C@@H]1CCN(c2cnn(CCO)c(=O)c2Cl)C1 (stereo partly drawn) [P-0451, (R)-1-(5-chloro-1-(2-hydroxyethyl)-6-oxo-1,6-dihydropyridazin-4-yl)pyrrolidin-3-yl (7-oxabicyclo[2.2.1]heptan-2-yl)carbamate]",0.001 to 10,0.001 to 10
"CC1(NC(=O)O[C@@H]2CCN(c3cnn(CCO)c(=O)c3Cl)C2)CCCC1 [P-0452, (R)-1-(5-chloro-1-(2-hydroxyethyl)-6-oxo-1,6-dihydropyridazin-4-yl)pyrrolidin-3-yl (1-methylcyclopentyl)carbamate]",0.001 to 10,0.001 to 10
"O=C(NC1CC2C(C1)C2(F)F)O[C@@H]1CCN(c2cnn(CCO)c(=O)c2Cl)C1 (stereo partly drawn) [P-0453, (R)-1-(5-chloro-1-(2-hydroxyethyl)-6-oxo-1,6-dihydropyridazin-4-yl)pyrrolidin-3-yl (6,6-difluorobicyclo[3.1.0]hexan-3-yl)carbamate]",0.001 to 10,0.001 to 10
"O=C(N[C@@H]1CCC(F)(F)C1)O[C@@H]1CCN(c2cn[nH]c(=O)c2Cl)C1 [P-0454, (R)-1-(5-chloro-6-oxo-1,6-dihydropyridazin-4-yl)pyrrolidin-3-yl ((R)-3,3-difluorocyclopentyl)carbamate]",0.001 to 10,0.001 to 10
"O=C(N[C@H]1CCC[C@H]1O)O[C@@H]1CCN(c2cn[nH]c(=O)c2Cl)C1 [P-0455, (R)-1-(5-chloro-6-oxo-1,6-dihydropyridazin-4-yl)pyrrolidin-3-yl ((1S,2R)-2-hydroxycyclopentyl)carbamate]",0.001 to 10,10 to 100
